“Also recorded” adds a separate entry of the source.

The target in one data set is T1, recombinant human GPBP (Homo sapiens, UniProt Q9Y5P4).
T1 sequence (Q9Y5P4 1-624): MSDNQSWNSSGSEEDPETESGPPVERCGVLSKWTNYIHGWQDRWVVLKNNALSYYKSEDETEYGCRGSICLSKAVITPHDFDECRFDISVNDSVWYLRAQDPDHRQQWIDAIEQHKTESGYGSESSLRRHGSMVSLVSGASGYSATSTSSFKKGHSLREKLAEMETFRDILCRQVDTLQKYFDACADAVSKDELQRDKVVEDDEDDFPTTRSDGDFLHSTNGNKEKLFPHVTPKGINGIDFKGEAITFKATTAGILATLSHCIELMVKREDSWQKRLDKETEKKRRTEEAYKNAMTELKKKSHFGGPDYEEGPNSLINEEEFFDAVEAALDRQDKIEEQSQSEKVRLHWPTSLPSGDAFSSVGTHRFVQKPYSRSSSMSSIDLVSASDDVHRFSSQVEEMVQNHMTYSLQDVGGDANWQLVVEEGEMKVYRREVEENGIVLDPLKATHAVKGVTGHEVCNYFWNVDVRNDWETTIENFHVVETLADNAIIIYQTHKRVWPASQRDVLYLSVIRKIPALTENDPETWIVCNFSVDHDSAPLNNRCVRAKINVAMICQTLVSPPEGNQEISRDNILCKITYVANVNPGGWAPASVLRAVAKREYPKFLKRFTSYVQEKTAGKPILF
In words: In vitro phosphorylation: GPBP kinase activity / autophosphorylation. The following applies: for GPBP kinase activity in vitro (autophosphorylation): modulators at 200 μM, 10 min autophosphorylation reaction.

In data set [1] the test system is α3(IV)NC1-expressing cells (HEK293). In words: α3(IV)NC1 conformer production in cultured cells (Western blot of culture media). It is filed as cell-based, human. The following applies: for α3(IV)NC1 conformer production in cultured cells: synthetic peptides 100-200 μM, organic compounds 5-50 μM, 24-48 h. For orientation: Immunoblotting shows a protein as a band on a membrane.

In another data set the test system is GPBP mRNA. In words: Silencing of GPBP expression in 293 cells (Western blot). It is filed as cell-based, human. The following applies: 293 cells transfected with silencer plasmid. The procedure: FIG. 4. Cellular 91- and 120-kDa GPBP-related polypeptides are translation products of GPBP mRNA. Similar amounts (˜50 μg) of lysates from non-transfected 293 cells (1) or from 293 cells transfected with a plasmid encoding for SiGFP (2), SiGPBP (3), SiGPBP/Δ26-1 (4) SiGPBP/Δ26-2 (5), SiGPBP/Δ26-3 (6), SiGPBP/Δ26-4 (7) were analyzed by Western blot using the indicated antibodies.
SimRNA production. Silencers were generated using pSilencer 2.1-U6 hygro plasmid (Ambion) following manufacturers recommendations. The oligonucleotide pairs used were:
Recombinant protein expression in cultured cells. The pcDNA3-based contructs containing the cDNA encoding the different human proteins of interest were used to transfect human 293 cells using standard calcium phosphate procedures in ProFection Mammalian Transfection System (Promega). 24-48 h after transfection cell lysates were used for Western blot, precipitation or immunoprecipitation studies. Cells expressing GPBP or derived deletion mutants were collected on ice with 50 mM Tris HCl pH 7.4, 0.05% Triton X-100, 1 mM PMSF and 5 μg/ml leupeptin, disrupted by vortex and insoluble material discarded by centrifugation at 14.000 rpm in Eppendorf at 4° C. for 10 min and supernatant used for Western blot analysis.

The next data set concerns the target GPBP-PrP^C complex (Homo sapiens, UniProt Q9Y5P4). Type of data set: binding, bovine PrP^C.
The test system of another data set is rat liver lysosomes. Type of data set: in vivo. The following applies: lysosomes from liver of leupeptin-treated vs untreated rats. The procedure: FIG. 6. Identification of 91-kDa GPBP isoform in rat liver lysosomes and evidence for processing to 44-47-kDa isoforms. In A, similar amounts (˜50 μg) of lysosomal fractions from liver of untreated (C) or leupeptin-treated (L) rats were analyzed by Western blot using Mab6 antibodies. In B, lysosomal fractions as in A were further fractioned and whole (W), soluble (S) or non-soluble (M) fractions were similarly analyzed.
Subcellular fractioning and related studies. Rat liver subcellular fractionation was essentially performed as indicated in Aniento, F., Roche, E., Cuervo, A. M., Knecht, E. (1993). J. Biol. Chem. 268, 10463-10470. For some purposes lysosomal fractions (freshly prepared entire lysosomes) were dispersed in pure water and subjected to ten consecutive cycles of freezing and thawing to alter lysosomal membrane integrity (broken lysosomes). For other purposes, lysosomal fractions were similarly disrupted in the presence of protease inhibitors (PMSF 2 mM, leupeptin 0.2 mM and EDTA 2 mM) and subsequently centrifuged 130,000×g for 10 min at room temp to separate the soluble lysosomal fraction (also called here lysosomal extract) from the non-soluble fraction which, after rinse with 0.3 M saccharose in 10 mM MOPS pH 7.2, was used as the lysosomal membrane fraction.

The target in a further data set is T2, GPBP (Homo sapiens, UniProt Q9Y5P4).
T2 sequence (Q9Y5P4 1-299): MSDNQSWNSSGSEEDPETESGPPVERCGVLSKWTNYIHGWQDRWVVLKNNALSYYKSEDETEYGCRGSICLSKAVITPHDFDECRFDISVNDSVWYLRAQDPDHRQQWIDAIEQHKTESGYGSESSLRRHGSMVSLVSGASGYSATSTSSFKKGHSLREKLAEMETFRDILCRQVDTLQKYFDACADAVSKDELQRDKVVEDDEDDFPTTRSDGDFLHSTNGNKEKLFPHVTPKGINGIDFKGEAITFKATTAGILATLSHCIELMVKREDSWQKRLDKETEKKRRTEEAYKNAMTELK
In words: Auto-phosphorylation of GPBP deletion mutant at pH 5. It is filed as biochemical.

With `CN([C@@H](Cc1ccc(OS(=O)(=O)c2cccc3cnccc23)cc1)C(=O)N1CCN(c2ccccc2)CC1)S(=O)(=O)c1cccc2cnccc12` [KN62, 1-[N,O-bis-(5-Isoquinolinesulfonyl)-N-methyl-L-tyrosyl]-4-phenylpiperazine, reference compound], at recombinant human GPBP, the “GPBP kinase activity in vitro (autophosphorylation)” value (shortened to “GPBP kinase activity in vitro”) is “inhibited GPBP kinase activity in vitro to a larger extent than KN93”. The “α3(IV)NC1 conformer production in cultured cells” value in data set [1] is on record as “reduced cell conformer production”.
Regarding “SiGPBP/Δ26-3: silencer of GPBP and/or GPBPΔ26 expression, SEQ ID NO:49 (guide AAGUACUUUGAUGCCUGUGCU; listed as RNA, chemistry not given here)”, the “GPBP expression (endogenous 91- and 120-kDa GPBP)” value (“GPBP expression” below) with GPBP mRNA is on record as “diminish GPBP and/or GPBPΔ26 expression”.
Take `CN[C@@H]1C[C@H]2O[C@@](C)([C@@H]1OC)n1c3ccccc3c3c4c(c5c6ccccc6n2c5c31)C(=O)NC4` [staurosporine, reference compound]: the “GPBP kinase activity in vitro” value at recombinant human GPBP is “efficiently impaired”.
`CC[C@@H](C)[C@@H](NC(=O)[C@@H](CS)NC(=O)[C@@H](Cc1c[nH]cn1)NC(=O)[C@@H](CO)NC(=O)[C@@H](CC(C)C)NC(=O)[C@H](NC(=O)[C@@H](C)NC(=O)[C@@H](CC(C)C)NC(C)=O)[C@H](C)O)C(=O)N[C@H](CCC(=O)O)C(=O)N[C@H](CC(C)C)C(=O)N[C@H](CCSC)C(=O)N[C@@H](C(=O)N[C@H](CCCCN)C(=O)N[C@H](CCCNC(=N)N)C(N)=O)C(C)C` [Q2D]: the “effect on GPBP autophosphorylation at decreasing concentrations” value on recombinant human GPBP (decreasing concentrations up to 10 μM) is recorded as “inhibition”. Further, the results for the “GPBP kinase activity in vitro” value on recombinant human GPBP and at recombinant human GPBP (listed as D-amino acid version of Q2) were “more efficient inhibiting” and “more potent inhibitory activity”, respectively. Also, at GPBP-PrP^C complex, the “GPBP-PrP^C complex formation” value is “fully inhibited”.
With “SiGPBP/Δ26-1: silencer of GPBP and/or GPBPΔ26 expression, SEQ ID NO:47 (AAACUACAUUCAUGGGUGGCA; listed as RNA, chemistry not given here)”, the “GPBP expression” value in the data set with GPBP mRNA is recorded as “diminish GPBP and/or GPBPΔ26 expression”.
On to `Cl.N` [NH4Cl], for which the “α3(IV)NC1 conformer production” value in data set [1] (20 mM NH4Cl) is reported as “reduced conformer production”.
As for “SiGPBP/Δ26-2: silencer of GPBP and/or GPBPΔ26 expression, SEQ ID NO:48 (guide AAACAGAGUAUGGCUGCAGAG; listed as RNA, chemistry not given here)”, the “GPBP expression” value in the data set on GPBP mRNA is “silenced endogenous GPBP more efficiently than SiGPBP/Δ26-4”; with GPBP mRNA (listed as siGPBPΔ26-2) it was “diminish GPBP and/or GPBPΔ26 expression”.
Take `CC(=O)N[C@@H](CC(C)C)C(=O)N[C@@H](CC(C)C)C(=O)N[C@H](C=O)CCCNC(=N)N` [leupeptin]: the “lysosomal GPBP immunoreactive polypeptides” value in the data set on rat liver lysosomes is listed as 44-47-kDa polypeptides significantly diminished. Also, in data set [1], the “presence of α3(IV)NC1 proteolytic products” value is reported as “inhibited the presence of proteolytic products”.
As for “SiGPBP/Δ26-4: silencer of GPBP and/or GPBPΔ26 expression, SEQ ID NO:50 (guide AAAGGCGUCACAGGACAUGAA; listed as RNA, chemistry not given here)”, the “GPBP expression” value with GPBP mRNA was “diminish GPBP and/or GPBPΔ26 expression”.
Take Ac-EKTAGKPILF-OH [Q4]: the “GPBP kinase activity in vitro” value with recombinant human GPBP is recorded as “inhibited GPBP autophosphorylation in a more limited manner; also recorded: poor inhibitor”. Further, the “α3(IV)NC1 conformer production in cultured cells” value in data set [1] was “reduction in conformer production; also recorded: more limited inhibitory effect”.
Regarding “SiGPBP: silencer of GPBP expression, SEQ ID NO:51 (AAGCCCUAUAGUCGCUCUUCC; listed as RNA, chemistry not given here)”, in the data set with GPBP mRNA, the “GPBP expression” value is “diminish GPBP and/or GPBPΔ26 expression”.
`CC[C@H](C)[C@H](NC(=O)[C@H](CS)NC(=O)[C@H](Cc1c[nH]cn1)NC(=O)[C@H](CO)NC(=O)[C@H](CC(C)C)NC(=O)[C@@H](NC(=O)[C@H](C)NC(=O)[C@H](CC(C)C)NC(C)=O)[C@@H](C)O)C(=O)N[C@@H](CCC(=O)O)C(=O)N[C@@H](CC(C)C)C(=O)N[C@@H](CCSC)C(=O)N[C@H](C(=O)N[C@@H](CCCCN)C(=O)N[C@@H](CCCNC(=N)N)C(N)=O)C(C)C` [Q2L]: the “GPBP-PrP^C complex formation” value at GPBP-PrP^C complex was “efficiently inhibited”.
Still for that read-out and setting: to “Ac-VLMASLETLCRIHKI-NH2 [Q2Lr, reference compound]” belongs “no effect on complex formation”.

B1: residues 1-299 of GPBP: C-terminal deletion mutant of GPBP with approximately 44-kDa molecular mass, SEQ ID NO:38 (protein)
chain: MSDNQSWNSSGSEEDPETESGPPVERCGVLSKWTNYIHGWQDRWVVLKNNALSYYKSEDETEYGCRGSICLSKAVITPHDFDECRFDISVNDSVWYLRAQDPDHRQQWIDAIEQHKTESGYGSESSLRRHGSMVSLVSGASGYSATSTSSFKKGHSLREKLAEMETFRDILCRQVDTLQKYFDACADAVSKDELQRDKVVEDDEDDFPTTRSDGDFLHSTNGNKEKLFPHVTPKGINGIDFKGEAITFKATTAGILATLSHCIELMVKREDSWQKRLDKETEKKRRTEEAYKNAMTELK
modifications: Derived sequence
In the case of B1, the auto-phosphorylation activity result with GPBP is on record as “greater auto-phosphorylation activity at pH 5 than full sized GPBP”.

Values taken from US7326768B2, “Goodpasture antigen-binding protein isoforms and protein misfolded-mediated disorders” (priority 2003, dated 2008).
